Assay results: BigSolDB 2.1

Cc1ccc2c(c1)C(=O)OC2=O
solubility (mole fraction)
Conditions | 278.15 K | 283.15 K | 288.15 K | 293.15 K | 298.15 K | 303.15 K | 308.15 K | 313.15 K | 318.15 K
in acetone | 0.127 | 0.15 | 0.176 | 0.206 | 0.236 | 0.272 | 0.312 | 0.356 | 0.406
in acetonitrile | 0.101 | 0.118 | 0.141 | 0.167 | 0.193 | 0.224 | 0.258 | 0.3 | 0.343
in cyclohexane | – | 0.00152 | 0.0019 | 0.00245 | 0.0031 | 0.00396 | 0.00489 | 0.00591 | 0.00729
in methyl acetate | 0.179 | 0.206 | 0.236 | 0.263 | 0.289 | 0.328 | 0.363 | 0.41 | 0.449
in n-butyl acetate | 0.0226 | 0.0267 | 0.0312 | 0.0397 | 0.0473 | 0.0586 | 0.0716 | 0.0858 | 0.102
in n-heptane | 0.00107 | 0.00142 | 0.00178 | 0.00227 | 0.00284 | 0.00355 | 0.00444 | 0.00556 | 0.007
in tetrachloromethane | 0.00751 | 0.00871 | 0.0105 | 0.0127 | 0.0157 | 0.0189 | 0.0222 | 0.0265 | 0.0321
in toluene | 0.0651 | 0.0781 | 0.0945 | 0.11 | 0.133 | 0.158 | 0.188 | 0.225 | 0.273
